Values of other authors, collected in patent US10610592B2, “Treatment of multiple sclerosis” (priority 2014, dated 2020).

How the values were obtained:
[1] = very prolonged elimination
[2] = patients treated with alemtuzumab

elimination time [1]	Molecule	patients who develop thyroid autoimmune diseases, and hematologic and renal complications [2]
up to 2 years	C/C(O)=C(\C#N)C(=O)Nc1ccc(C(F)(F)F)cc1 [Teriflunomide]	
	Alemtuzumab: monoclonal antibody that binds to proteins (CD-52) on mature lymphocytes	Approximately 40%
